Test results published in US6841552B1, “3a,4,5,9b-tetrahydro-1H-benz[e]indol-2-yl amine-derived neuropeptide Y receptors ligands useful in the treatment of obesity and other disorders” (Ortho-McNeil Pharmaceutical, Inc., priority 1999, dated 2005).
Structures can show the parent of a compound that is named as a salt.

How the values were obtained:
[1] = molecular target: T1, human neuropeptide Y5 receptor (Homo sapiens, UniProt Q15761); assay: NPY5 HTS centrifugation assay: competition with 125I-PYY for binding to membranes of NPY5-transfected HEK293 cells
T1 construct: expressed in transfected cells; membranes
T1 sequence (Q15761 1-445): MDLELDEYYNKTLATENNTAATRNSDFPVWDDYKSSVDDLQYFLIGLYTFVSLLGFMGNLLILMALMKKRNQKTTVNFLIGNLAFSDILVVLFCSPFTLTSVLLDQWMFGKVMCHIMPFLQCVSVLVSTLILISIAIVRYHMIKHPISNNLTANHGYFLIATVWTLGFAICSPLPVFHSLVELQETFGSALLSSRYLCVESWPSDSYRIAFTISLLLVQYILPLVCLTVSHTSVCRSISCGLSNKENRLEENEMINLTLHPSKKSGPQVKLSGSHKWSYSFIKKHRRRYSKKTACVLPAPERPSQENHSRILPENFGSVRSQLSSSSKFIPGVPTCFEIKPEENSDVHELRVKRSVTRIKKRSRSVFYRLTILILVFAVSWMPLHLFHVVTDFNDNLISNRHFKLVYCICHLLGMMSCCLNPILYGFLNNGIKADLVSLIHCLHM
Procedure: NPY5 HTS Centrifugation Assay
The compounds described in this invention were evaluated for binding to the human neuropeptide Y5 receptor.
The human NPY5 receptor cDNA (Genbank Accession number U66275) was inserted into the vector pClneo (Invitrogen) and transfected into human embryonic kidney cells (HEK-293) via calcium phosphate method (Cullen 1987). Stably transfected cells were selected with G-418 (600 μg/mL). Stably transfected cells served as the source for the membranes for the NPY5 receptor binding assay.
NPY5-transfected HEK293 cells were grown to confluence in 150 cm^2 culture dishes. Cells were washed once with phosphate-buffered saline (Gibco Cat# 14040-133). Cells were then incubated in phosphate-buffered saline without calcium and without magnesium, supplemented with 2 mM EDTA. Cells were incubated for 10 minutes at room temperature and the cells were collected by repetitive pipeting. Cells were formed into pellets and then frozen at −80° C. until needed. Frozen pellets were homogenized with a polytron at full speed for 12 seconds in a homogenization buffer (20 mM Tris HCl, 5 mM EDTA, pH 7.4). Homogenates were centrifuged for 5 minutes at 4° C. at 200 g. Supernatants were transferred to corex tubes and centrifuged for 25 minutes at 28,000 g. Pellets were re-suspended in Binding (20 mM HEPES, 10 mM NaCl, 0.22 mM KH2PO4, 1.3 mM CaCl2, 0.8 mM MgSO4, pH 7.4). Membranes were kept on ice until use.
A competition binding assay, known to those skilled in the art, was used in which compounds of formula A compete with ^125I-PYY for binding to cell membranes. In simple terms, the less ^125I-PYY bound to the membranes implies that a compound is a good inhibitor (competitor). Bound ^125I-PYY is determined by centrifugation of membranes, aspirating supernatant, washing away residual ^125I-PYY and subsequently counting the bound sample in a gcounter.
Compounds to be tested were prepared as 10× stocks in binding buffer and added first to assay tubes (RIA vials, Sarstedt). Twenty (20) μL of each 10× compound stock is pipeted into vials and 80 μL of ^125I-PYY (NEN catalog number NEX240), which has been diluted to a concentration of 200 pM in 0.25% BSA in binding buffer, is added to the compound tubes (final concentration of ^125I-PYY is 80 pM). To each tube is added 100 μL of membranes and the mixture is agitated by pipeting 2 times. Samples are incubated for 1 hr at room temperature. Aluminum cast plates (Sarstedt) containing the vials are then centrifuged 10 minutes at 3200 rpm in a Sorvall RT6000. Supernatant is then aspirated. To each vial 400 μL PBS is added and this is then aspirated again. Vials are then put in carrier polypropylene 12×75 tube and counted in gamma counter (Packard). Non-specific binding is determined in the presence of 300 nM NPY. Percent inhibition of ^125I-PYY binding is calculated by subtracting non-specific binding from the test samples (compound (I)), taking these counts and dividing by total binding, and multiplying by 100. Inhibitory concentration values (IC50) of compounds that show appreciable inhibition of ^125I-PYY binding are calculated by obtaining percent inhibition of ^125I-PYY binding values at different concentrations of the test compound, and using a graphing program such as GraphPad Prism (San Diego, Calif.) to calculate the concentration of test compound that inhibits fifty-percent of ^125I-PYY binding (Table 4).

Food-Deprived Rats = assay: Rodent feeding model: measurement of food intake in food-deprived rats; assay type: in vivo, Male Long-Evans rats; details: 30 mg/kg i.p.
Description: Measurement of Food Intake in Food-Deprived Rats
Male Long-Evans rats (180-200 grams) are housed individually and are maintained on once-a-day feeding schedule (i.e., 10 a.m. until 4 p.m.) for five days following quarantine to allow the animals to acclimate to feeding on powdered chow (#5002 PMI Certified Rodent Meal) during the allotted time. The chow is made available in a open jar, anchored in the cage by a wire, with a metal follower covering the food to minimize spillage. Water is available ad-libitum.
Animals are fasted for 18 hours prior to testing. At the end of the fasting period, animal are administered either compounds of the invention or vehicle. Vehicle and test compounds are administered either orally (5 mL/kg) 60 minutes prior to the experiment, or 30 minutes prior when given subcutaneously (1 mL/kg) or intraperitoneally (1 mL/kg). Compounds of the invention are administered orally as a suspension in aqueous 0.5% methylcellulose-0.4% Tween 80, or intraperitoneally as a solution or suspension in PEG 200; compound concentrations typically range from 1 mg/kg to 100 mg/kg, preferably from 10-30 mg/kg. Food intake is measured at 2, 4, and 6 hours after administration by weighing the special jar containing the food before the experiment and at the specified times. Upon completion of the experiment, all animals are given a one-week washout period before retesting.
Percent reduction of food consumption is calculated subtracting the grams of food consumed by the treated group from the grams of food consumed by the control group divided by the grams of food consumed by the control group, multiplied by 100. A negative value indicates a reduction in food consumption and a positive value indicates an increase in food consumption. [formula]

Q: For `O=S(=O)(NC[C@H]1CC[C@H](CNC2=N[C@@H]3CCc4cc(O)ccc4[C@@H]3C2)CC1)c1ccccc1` [Compound 10, N-[[trans-4-[[(cis-3a,4,5,9b-ttrahydro-7-hydroxy-1H-benz[e]indol-2-yl)amino]methyl]cyclohexyl]methyl]benzenesulfonamide hydrochloride], which inhibition at 0.3 µM ([1]; % inhibition of 125I-PYY binding at 300 nM compound, read-out: % Inh @ 300 nM) is on record?
A: Its inhibition at 0.3 µM is 74%.

Q: And the inhibition at 3 µM ([1]; % inhibition of 125I-PYY binding at 3 uM compound)?
A: The inhibition at 3 µM was 97%.

Q: And the “Food Consumption (avg. grams) 0-2 h” value (Food-Deprived Rats; 0-2 h, 18 h fasted rats)?
A: Its value is 4.38 g.

Q: And the “Food Consumption 0-2 h (% chg.)” value (Food-Deprived Rats; 0-2 h, change vs vehicle, negative = reduction)?
A: Its value is “(−57%)”.

Q: What about the “Food Consumption (avg. grams) 0-4 h” value (Food-Deprived Rats; 0-4 h, 18 h fasted rats) of the same compound?
A: The value was 6.43 g.

Q: And the “Food Consumption 0-4 h (% chg.)” value (Food-Deprived Rats; 0-4 h, change vs vehicle, negative = reduction)?
A: Its value is “(−53%)”.

Q: And the “Food Consumption (avg. grams) 0-6 h” value (Food-Deprived Rats; 0-6 h, 18 h fasted rats)?
A: The value was 10.75 g.

Q: What about the “Food Consumption 0-6 h (% chg.)” value (Food-Deprived Rats; 0-6 h, change vs vehicle, negative = reduction) of the same compound?
A: Its value is “(−49%)”.

Q: What about the “Food Consumption (avg. grams) 2-6 h” value (Food-Deprived Rats; 2-6 h, 18 h fasted rats) of the same compound?
A: Its value is 6.37 g.

Q: And the “Food Consumption 2-6 h (% chg.)” value (Food-Deprived Rats; 2-6 h, change vs vehicle, negative = reduction)?
A: The value was “(−41%)”.
